Tested on: SEM cells
Assay: cell viability relative to DMSO control; higher = less cytotoxic
Conditions: 48 h
Outline: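 Three leukemia lines were tested: NOMO1 and SEM at 500 cells/well and P12-Ichikawa at 1000 cells/well. Each was adapted for at least four passages in each medium and seeded in 5 μl in 1536-well plates, and library compounds in DMSO were pin-dosed from 47 μM to 0.79 nM in 11 threefold steps. After 48 h at 37°C, CellTiter-Glo One luminescence was read. Viability is a percentage relative to DMSO wells on each plate, with cell-free wells as background.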

[1] = HPLM + 10% dialyzed FBS, 0.000781 µM
[2] = HPLM + 10% dialyzed FBS, 0.00234 µM
[3] = HPLM + 10% dialyzed FBS, 0.00702 µM
[4] = HPLM + 10% dialyzed FBS, 0.0211 µM
[5] = HPLM + 10% dialyzed FBS, 0.0632 µM
[6] = HPLM + 10% dialyzed FBS, 0.19 µM
[7] = HPLM + 10% dialyzed FBS, 0.569 µM
[8] = HPLM + 10% dialyzed FBS, 1.71 µM
[9] = HPLM + 10% dialyzed FBS, 5.12 µM
[10] = HPLM + 10% dialyzed FBS, 15.4 µM
[11] = HPLM + 10% dialyzed FBS, 46.1 µM
[12] = RPMI 5 mM glucose + 10% FBS, 0.000781 µM
[13] = RPMI 5 mM glucose + 10% FBS, 0.00234 µM
[14] = RPMI 5 mM glucose + 10% FBS, 0.00702 µM
[15] = RPMI 5 mM glucose + 10% FBS, 0.0211 µM
[16] = RPMI 5 mM glucose + 10% FBS, 0.0632 µM
[17] = RPMI 5 mM glucose + 10% FBS, 0.19 µM
[18] = RPMI 5 mM glucose + 10% FBS, 0.569 µM
[19] = RPMI 5 mM glucose + 10% FBS, 1.71 µM
[20] = RPMI 5 mM glucose + 10% FBS, 5.12 µM
[21] = RPMI 5 mM glucose + 10% FBS, 15.4 µM
[22] = RPMI 5 mM glucose + 10% FBS, 46.1 µM
[23] = RPMI 5 mM glucose + 10% dialyzed FBS, 0.000781 µM
[24] = RPMI 5 mM glucose + 10% dialyzed FBS, 0.00234 µM
[25] = RPMI 5 mM glucose + 10% dialyzed FBS, 0.00702 µM
[26] = RPMI 5 mM glucose + 10% dialyzed FBS, 0.0211 µM
[27] = RPMI 5 mM glucose + 10% dialyzed FBS, 0.0632 µM
[28] = RPMI 5 mM glucose + 10% dialyzed FBS, 0.19 µM
[29] = RPMI 5 mM glucose + 10% dialyzed FBS, 0.569 µM
[30] = RPMI 5 mM glucose + 10% dialyzed FBS, 1.71 µM
[31] = RPMI 5 mM glucose + 10% dialyzed FBS, 5.12 µM
[32] = RPMI 5 mM glucose + 10% dialyzed FBS, 15.4 µM
[33] = RPMI 5 mM glucose + 10% dialyzed FBS, 46.1 µM

Row | Compound | cell viability [1] | cell viability [2] | cell viability [3] | cell viability [4] | cell viability [5] | cell viability [6] | cell viability [7] | cell viability [8] | cell viability [9] | cell viability [10] | cell viability [11] | cell viability [12] | cell viability [13] | cell viability [14] | cell viability [15] | cell viability [16] | cell viability [17] | cell viability [18] | cell viability [19] | cell viability [20] | cell viability [21] | cell viability [22] | cell viability [23] | cell viability [24] | cell viability [25] | cell viability [26] | cell viability [27] | cell viability [28] | cell viability [29] | cell viability [30] | cell viability [31] | cell viability [32] | cell viability [33]
1 | OC[C@H]1O[C@H]([C@@H](F)[C@@H]1O)N2\C=C/C(=O)NC2=O | 106% | 42.5% | 111% | 109% | 108% | 117% | 122% | 112% | 90.8% | 109% | 106% | 93.2% | 113% | 110% | 101% | 90.1% | 105% | 112% | 97% | 93.5% | 91.2% | 95.9% | 105% | 48.6% | 99.8% | 91.6% | 96.4% | 102% | 99.1% | 90.7% | 74% | 100% | 87.5%
2 | CC(=O)CC(C1=CC=CC=C1)C/2=C(O)/C3=CC=CC=C3OC2=O (stereo not given) | 80.7% | 101% | 114% | 71.7% | 119% | 114% | 103% | 110% | 116% | 113% | 120% | 110% | 104% | 105% | 73.1% | 105% | 105% | 115% | 118% | 115% | 125% | 137% | 84.4% | 103% | 114% | 73.4% | 111% | 123% | 119% | 125% | 128% | 126% | 123%
3 | NC(=O)c1ncn([C@@H]2O[C@H](CO)[C@@H](O)[C@H]2O)n1 | 96.4% | 110% | 116% | 119% | 104% | 106% | 101% | 106% | 117% | 117% | 80.4% | 105% | 115% | 118% | 115% | 112% | 115% | 95.2% | 95.9% | 103% | 123% | 76.9% | 106% | 118% | 121% | 110% | 113% | 108% | 104% | 118% | 111% | 142% | 85.7%
4 | COc1cc2nc(N3CCCN(C)CC3)nc(NC3CCN(Cc4ccccc4)CC3)c2cc1OC | 92.1% | 122% | 129% | 111% | 130% | 119% | 125% | 98.1% | 60.1% | 37.5% | 10.2% | 104% | 116% | 140% | 113% | 132% | 127% | 143% | 97.7% | 108% | 44.8% | 11.5% | 112% | 117% | 131% | 104% | 128% | 132% | 132% | 131% | 92.3% | 55.9% | 19.1%
5 | CC(C)Nc1cc(C(F)(F)F)cc2nc(NC(=O)c3cccnc3)nn12 | 113% | 105% | 101% | 118% | 119% | 96.6% | 102% | 42.3% | 26.5% | 13.7% | 5.96% | 113% | 112% | 95.3% | 110% | 107% | 89.2% | 94.2% | 18% | 15.8% | 8.3% | 2.38% | 126% | 98.6% | 116% | 113% | 102% | 94% | 101% | 23.2% | 16.3% | 11.1% | 4.75%
6 | O=C(CO)N1CCC(c2n[nH]c(-c3ccc(Cl)cc3)c2-c2ccncn2)CC1 | 102% | 119% | 119% | 112% | 110% | 104% | 98.7% | 101% | 75.6% | 64.9% | 31% | 114% | 128% | 123% | 127% | 107% | 123% | 109% | 106% | 85.3% | 49.4% | 16% | 131% | 108% | 108% | 141% | 110% | 119% | 128% | 100% | 79.7% | 51.5% | 20.1%
7 | COC[C@@H](NC(C)=O)C(=O)NCc1ccccc1 | 117% | 116% | 118% | 118% | 112% | 119% | 124% | 105% | 100% | 120% | 111% | 115% | 111% | 118% | 123% | 99.7% | 115% | 99.9% | 121% | 90.3% | 103% | 116% | 103% | 101% | 102% | 96.7% | 99.4% | 131% | 106% | 105% | 90% | 86.7% | 96.9%
8 | CC(C)(C)c1cc(C=C(C#N)C#N)cc(Br)c1O | 87% | 109% | 42.3% | 114% | 111% | 109% | 114% | 110% | 111% | 108% | 104% | 65.4% | 72.7% | 11.9% | 67.3% | 90.6% | 81.4% | 83.8% | 77.4% | 71.5% | 77.7% | 77.5% | 87.3% | 98.8% | 35.7% | 111% | 108% | 123% | 119% | 107% | 105% | 115% | 90.7%
9 | C[C@@H]1COCCN1C\2=C\C(=O)N\3CC[C@H](N(CC4=CN=CC(=C4)Cl)C3=N2)C(F)(F)F | 88% | 83.8% | 91.6% | 97.5% | 85.9% | 97.8% | 91.5% | 94% | 78.8% | 43.2% | 24.8% | 109% | 109% | 120% | 96.4% | 115% | 117% | 122% | 88.5% | 74.4% | 43.4% | 25.1% | 89.6% | 92.3% | 96.9% | 90.9% | 83.4% | 98.7% | 107% | 89.2% | 71.2% | 42.4% | 34.1%
10 | O=C1\C=C/C[C@@H]2[C@H]3CCCN4CCC[C@@H](CN12)[C@@H]34 | 109% | 113% | 111% | 112% | 99.6% | 105% | 117% | 112% | 93.4% | 102% | 101% | 90.8% | 77.1% | 103% | 108% | 101% | 59.3% | 99.5% | 107% | 87.1% | 88.6% | 95.7% | 89.1% | 108% | 101% | 115% | 108% | 81.8% | 106% | 118% | 105% | 98.9% | 92.2%
11 | NC1=NC=C(C=C1)C2=CC=C3N=CC\4=C(N(C(=O)\C=C4)C5=CC(=CC=C5)C(F)(F)F)C3=C2 | 67.9% | 65.8% | 53.2% | 46.5% | 37.5% | 24.7% | 28.6% | 24.3% | 13.3% | 8.87% | 14.3% | 84.7% | 81.8% | 74.2% | 57.2% | 42.2% | 27.9% | 21.8% | 24.8% | 8.57% | 13.8% | 7.9% | 70.5% | 66.7% | 46.2% | 44.4% | 34.8% | 23.6% | 21.6% | 22.5% | 5.98% | 5.05% | 8.96%
12 | Cc1cccc(C)c1OCC(=O)N[C@@H](Cc1ccccc1)[C@@H](O)C[C@H](Cc1ccccc1)NC(=O)[C@H](C(C)C)N1CCCNC1=O | 80.3% | 94.2% | 86.7% | 96.4% | 100% | 81.4% | 85.6% | 76% | 78.5% | 65.4% | 39% | 97.7% | 94.2% | 102% | 94.8% | 108% | 103% | 95.9% | 90.9% | 79.6% | 77.1% | 36.7% | 79.8% | 101% | 93.7% | 102% | 104% | 100% | 107% | 104% | 85.5% | 69.1% | 31.2%
13 | c1cc(CN2CCCNCCNCCCNCC2)ccc1CN1CCCNCCNCCCNCC1 | 83.6% | 85.7% | 86.8% | 20.1% | 94.3% | 101% | 89.8% | 96.9% | 106% | 116% | 110% | 70.8% | 93.3% | 83.8% | 13.6% | 85.7% | 92.9% | 87.1% | 90.8% | 94.1% | 91.5% | 89% | 94.1% | 84.4% | 94.2% | 20% | 117% | 118% | 106% | 115% | 102% | 125% | 119%
14 | COc1cc2c(Nc3ccc(Cl)c(Cl)c3F)ncnc2cc1OC[C@@H]1C[C@@H]2CN(C)C[C@@H]2C1 | 105% | 118% | 121% | 120% | 98.8% | 113% | 100% | 93.3% | 56% | 47% | 10.1% | 98% | 117% | 121% | 144% | 118% | 118% | 101% | 64.2% | 44.4% | 48% | 5.51% | 112% | 109% | 133% | 129% | 119% | 124% | 110% | 75.8% | 67% | 55.7% | 6.25%
15 | C1CCC(C(CC2CCCCN2)C2CCCCC2)CC1 (stereo not given) | 82.6% | 92.2% | 94.9% | 98.3% | 104% | 110% | 93.5% | 96.9% | 118% | 54.1% | 7.7% | 94.4% | 122% | 93% | 113% | 116% | 117% | 110% | 112% | 111% | 45.1% | 19.6% | 85.7% | 93.9% | 91.7% | 85.5% | 100% | 86.6% | 96.8% | 110% | 89.9% | 37.7% | 34%

— the supplement of paper PMC11451515
